What was measured:
Format in all cases: in vivo
[1] = system: Beet Armyworm (Spodoptera exigua); assay: Bioassay on Beet Armyworm (BAW), 128-well diet tray assay; settings: Beet Armyworm, Table ABC, read-out: BAW rating
Outline: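 Percent mortality, averaged over eight wells, was scored after five to seven days at 25° C under 14:10 light-dark. Each well's diet carried 50 μg/cm^2 of test molecule applied in acetone-water (90:10) and dried before one to five second-instar larvae were added.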

[2] = system: Cabbage Looper (Trichoplusia ni); assay: Bioassay on Cabbage Looper (CL), 128-well diet tray assay; settings: Cabbage Looper, Table ABC, read-out: CL rating
Outline: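 Mortality after five to seven days at 25° C (14:10 photoperiod), averaged over eight wells per compound. Diet in each well carried 50 μg/cm^2 of dried test molecule and received one to five second-instar larvae.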

[3] = system: Yellow Fever Mosquito (Aedes aegypti); assay: Bioassay on Yellow Fever Mosquito (YFM) larvae, 96-well plate; settings: Table ABC
Protocol: Example C: Bioassays on Yellow Fever Mosquito (Aedes Aegypti, AEDSAE) (“YFM”)
Certain molecules disclosed in this document were tested against YFM using procedures described in the following paragraph. In the reporting of the results, the “GPA & YFM Rating Table” was used (See Table Section).
Master plates containing 400 μg of a molecule dissolved in 100 μL of dimethyl sulfoxide (DMSO) (equivalent to a 4000 ppm solution) are used. A master plate of assembled molecules contains 15 μL per well. To this plate, 135 μL of a 90:10 water:acetone mixture is added to each well. A robot (Biomek® NXP Laboratory Automation Workstation) is programmed to dispense 15 μL aspirations from the master plate into an empty 96-well shallow plate (“daughter” plate). There are 6 reps (“daughter” plates) created per master. The created daughter plates are then immediately infested with YFM larvae.
The day before plates are to be treated, mosquito eggs are placed in Millipore water containing liver powder to begin hatching (4 g. into 400 mL). After the daughter plates are created using the robot, they are infested with 220 μL of the liver powder/larval mosquito mixture (about 1 day-old larvae). After plates are infested with mosquito larvae, a non-evaporative lid is used to cover the plate to reduce drying. Plates are held at room temperature for 3 days prior to grading. After 3 days, each well is observed and scored based on mortality. The results are indicated in the table entitled “Table ABC: Biological Results” (See Table Section).

C[C@@H](NC(=O)c1ccc(/C(F)=C/C(c2cc(Br)cc(Br)c2)C(F)(F)F)cc1C(F)(F)F)C(=O)NCC(F)(F)F (stereo partly drawn) [F33, 4-((Z)-3-(3,5-Dibromophenyl)-1,4,4,4-tetrafluorobut-1-en-1-yl)-N—((R)-1-oxo-1-((2,2,2-trifluoroethyl)amino)propan-2-yl)-2-(trifluoromethyl)benzamide]
pest or weed control at 50 µg/cm2 [1]: 50 to 100%
pest or weed control at 50 µg/cm2 [2]: 50 to 100%
YFM rating [3]: A (80-100)

O=C(NC1(C(=O)NCC(F)(F)F)CC1)c1ccc(/C(F)=C/C(c2cc(Br)cc(Br)c2)C(F)(F)F)cc1C(F)(F)F (stereo not shown) [F34, (Z)-4-(3-(3,5-dibromophenyl)-1,4,4,4-tetrafluorobut-1-en-1-yl)-N-(1-((2,2,2-trifluoroethyl)carbamoyl)cyclopropyl)-2-(trifluoromethyl)benzamide]
pest or weed control at 50 µg/cm2 [1]: 50 to 100%
pest or weed control at 50 µg/cm2 [2]: 50 to 100%
YFM rating [3]: A (80-100)

O=C(CNC(=O)c1ccc(/C(F)=C/C(c2cc(Br)cc(Br)c2)C(F)(F)F)cc1C(F)(F)F)NCC(F)(F)F (stereo not shown) [F35, (Z)-4-(3-(3,5-Dibromophenyl)-1,4,4,4-tetrafluorobut-1-en-1-yl)-N-(2-oxo-2-((2,2,2-trifluoroethyl)amino)ethyl)-2-(trifluoromethyl)benzamide]
pest or weed control at 50 µg/cm2 [1]: 50 to 100%
pest or weed control at 50 µg/cm2 [2]: 50 to 100%
YFM rating [3]: A (80-100)

C[C@@H](NC(=O)c1ccc(/C(F)=C/C(c2cc(Cl)c(F)c(Cl)c2)C(F)(F)F)cc1C(F)(F)F)C(=O)NCC(F)(F)F (stereo partly drawn) [F36, 4-((Z)-3-(3,5-Dichloro-4-fluorophenyl)-1,4,4,4-tetrafluorobut-1-en-1-yl)-N—((R)-1-oxo-1-((2,2,2-trifluoroethyl)amino)propan-2-yl)-2-(trifluoromethyl)benzamide]
pest or weed control at 50 µg/cm2 [1]: 50 to 100%
pest or weed control at 50 µg/cm2 [2]: 50 to 100%
YFM rating [3]: A (80-100)

O=C(NC1(C(=O)NCC(F)(F)F)CC1)c1ccc(/C(F)=C/C(c2cc(Cl)c(F)c(Cl)c2)C(F)(F)F)cc1C(F)(F)F (stereo not shown) [F37, (Z)-4-(3-(3,5-Dichloro-4-fluorophenyl)-1,4,4,4-tetrafluorobut-1-en-1-yl)-N-(1-((2,2,2-trifluoroethyl)carbamoyl)cyclopropyl)-2-(trifluoromethyl)benzamide]
pest or weed control at 50 µg/cm2 [1]: 50 to 100%
pest or weed control at 50 µg/cm2 [2]: 50 to 100%
YFM rating [3]: A (80-100)

CN(CC(F)(F)F)C(=O)C1(NC(=O)c2ccc(/C(F)=C/C(c3cc(Cl)cc(Cl)c3)C(F)(F)F)cc2C(F)(F)F)CC1 (stereo not shown) [F133, (Z)-4-(3-(3,5-Dichlorophenyl)-1,4,4,4-tetrafluorobut-1-en-1-yl)-N-(1-(methyl(2,2,2-trifluoroethyl)carbamoyl)cyclopropyl)-2-(trifluoromethyl)benzamide]
YFM rating [3]: B (More than 0-Less than 80)

Cc1cc(C(/C=C(\F)c2ccc(C(=O)NC3(C(=O)N(C)CC(F)(F)F)CC3)c(C(F)(F)F)c2)C(F)(F)F)cc(C)c1Cl (stereo not shown) [F134, (Z)-4-(3-(4-Chloro-3,5-dimethylphenyl)-1,4,4,4-tetrafluorobut-1-en-1-yl)-N-(1-(methyl(2,2,2-trifluoroethyl)carbamoyl)cyclopropyl)-2-(trifluoromethyl)benzamide]
YFM rating [3]: B (More than 0-Less than 80)

CN(CC(F)(F)F)C(=O)C1(NC(=O)c2ccc(/C(F)=C/C(c3ccc(Cl)c(Cl)c3)C(F)(F)F)cc2C(F)(F)F)CC1 (stereo not shown) [F135, (Z)-4-(3-(3,4-Dichlorophenyl)-1,4,4,4-tetrafluorobut-1-en-1-yl)-N-(1-(methyl(2,2,2-trifluoroethyl)carbamoyl)cyclopropyl)-2-(trifluoromethyl)benzamide]
YFM rating [3]: B (More than 0-Less than 80)

C[C@@H](NC(=O)c1ccc(/C(F)=C/C(c2cc(Cl)cc(Cl)c2)C(F)(F)F)cc1C(F)(F)F)C(=O)NCC(F)(F)F (stereo partly drawn) [F144, 4-((Z)-3-(3,5-Dichlorophenyl)-1,4,4,4-tetrafluorobut-1-en-1-yl)-N—((R)-1-oxo-1-((2,2,2-trifluoroethyl)amino)propan-2-yl)-2-(trifluoromethyl)benzamide]
YFM rating [3]: A (80-100)
